# Target: T1, Recombinant human KIF18A (1-467His-tagged) protein (Homo sapiens, UniProt Q8NI77)
# T1 construct: Recombinant human KIF18A (1-467His-tagged) protein; His; made in house
# Assay: KIF18A enzyme assay (microtubule-stimulated ATPase activity, ADP-Glo)
# Assay type: biochemical
# Conditions: 30 nM KIF18A, 75 μM ATP, 30 μg/mL pig microtubules; read-out: Inhibitory activity against KIF18A IC50
# Outline: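 Buffer 15 mM Tris pH 7.5, 10 mM MgCl2, 0.01% Pluronic F-68, 1 μM paclitaxel, 30 μg/mL pig microtubules; reactions at room temperature. IC50 from inhibition relative to DMSO.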
# T1 sequence (Q8NI77 1-467): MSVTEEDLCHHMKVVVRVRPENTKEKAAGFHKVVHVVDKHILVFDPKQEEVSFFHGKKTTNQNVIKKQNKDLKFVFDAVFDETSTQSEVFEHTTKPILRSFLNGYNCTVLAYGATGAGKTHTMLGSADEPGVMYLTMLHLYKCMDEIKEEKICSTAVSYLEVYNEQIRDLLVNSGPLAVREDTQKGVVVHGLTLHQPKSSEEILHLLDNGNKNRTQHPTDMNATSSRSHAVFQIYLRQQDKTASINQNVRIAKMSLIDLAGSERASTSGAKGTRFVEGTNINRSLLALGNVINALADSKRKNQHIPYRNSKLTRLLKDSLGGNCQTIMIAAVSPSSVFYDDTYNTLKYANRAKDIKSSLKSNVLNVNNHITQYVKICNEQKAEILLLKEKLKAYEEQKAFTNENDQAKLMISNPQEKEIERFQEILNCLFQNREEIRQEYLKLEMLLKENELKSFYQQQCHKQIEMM
# T1 sequence (P02550 whole entry partner): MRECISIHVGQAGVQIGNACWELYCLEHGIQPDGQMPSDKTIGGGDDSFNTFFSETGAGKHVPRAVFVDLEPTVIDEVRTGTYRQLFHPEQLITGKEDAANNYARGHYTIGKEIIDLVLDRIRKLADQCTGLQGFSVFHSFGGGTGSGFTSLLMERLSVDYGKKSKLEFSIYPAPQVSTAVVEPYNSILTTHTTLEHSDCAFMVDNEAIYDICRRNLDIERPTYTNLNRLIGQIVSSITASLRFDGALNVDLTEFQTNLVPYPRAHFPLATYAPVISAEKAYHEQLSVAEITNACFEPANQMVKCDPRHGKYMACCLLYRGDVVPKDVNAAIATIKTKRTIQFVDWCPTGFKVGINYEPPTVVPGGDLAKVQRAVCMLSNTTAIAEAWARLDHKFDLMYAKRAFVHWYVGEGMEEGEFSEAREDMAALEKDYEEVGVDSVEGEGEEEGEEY
# T1 sequence (P02554 whole entry partner): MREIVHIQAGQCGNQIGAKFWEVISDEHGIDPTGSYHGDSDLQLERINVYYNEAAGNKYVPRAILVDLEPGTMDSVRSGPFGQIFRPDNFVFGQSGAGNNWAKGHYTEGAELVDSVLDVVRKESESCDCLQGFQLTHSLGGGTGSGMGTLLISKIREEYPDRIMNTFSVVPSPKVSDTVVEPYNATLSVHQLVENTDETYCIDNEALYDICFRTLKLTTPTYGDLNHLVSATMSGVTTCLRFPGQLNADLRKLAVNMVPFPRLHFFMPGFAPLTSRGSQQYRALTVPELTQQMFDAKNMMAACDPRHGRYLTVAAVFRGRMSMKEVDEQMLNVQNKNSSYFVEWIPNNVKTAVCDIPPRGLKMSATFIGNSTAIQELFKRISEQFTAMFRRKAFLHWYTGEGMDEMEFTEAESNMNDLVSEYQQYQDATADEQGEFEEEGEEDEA
row,SMILES,IC50 [nM]
1,O=C(Nc1ccc(S(=O)(=O)NCCO)cc1N1CCC2(CC1)CC2)c1ccc([N+](=O)[O-])c(N2CC3CC3C2)n1 (stereo not drawn) [Compound 186],100 to 500
2,C[C@H](CO)NS(=O)(=O)c1cc(N2CCC3(CC2)CC3)c(NC(=O)c2ccc([N+](=O)[O-])c(N3CCC(F)(F)CC3)n2)cn1 [Compound 254],100 to 500
3,C[C@@H](CO)S(=O)(=O)Nc1cc(N2CCC3(CC2)CC3)c(C(=O)Nc2ccc([N+](=O)[O-])c(N3CCC(F)(F)CC3)c2)cn1 [Compound 109],≤ 100
4,COc1ccc(NC(=O)c2cnc(NS(=O)(=O)[C@H](C)CO)cc2N2CCC3(CC2)CC3)nc1N1CCO[C@H](C)C1 [Compound 304],≤ 100
5,O=C(Nc1ccc(S(=O)(=O)NCCO)cc1N1CCC2(CC1)CC2)c1ccc([N+](=O)[O-])c(OC2CCC2)c1 [Compound 55],100 to 500
6,O=C(Nc1ccc(S(=O)(=O)NCCO)cc1N1CCC2(CC1)CC2)c1ccc([N+](=O)[O-])c(N2CCC(F)CC2)c1 [Compound 57],100 to 500
7,C[C@@H](CO)NS(=O)(=O)c1cc(N2CCC3(CC2)CC3)c(C(=O)Nc2ccc([N+](=O)[O-])c(N3CCC(F)(F)CC3)n2)cn1 [Compound 157],≤ 100
8,O=C(Nc1ccc([N+](=O)[O-])c(N2CC(F)(F)C2)c1)c1ccc(S(=O)(=O)NCCO)cc1N1CCC2(CC1)CC2 [Compound 20],≤ 100
9,CC1(F)CCN(c2nc(C(=O)Nc3cnc(S(=O)(=O)NCCO)cc3N3CCC4(CC3)CC4)ccc2[N+](=O)[O-])C1 (stereo not drawn) [Compound 248],100 to 500
10,C[C@H](CO)S(=O)(=O)Nc1ccc(NC(=O)c2ccc([N+](=O)[O-])c(N3CCC(F)(F)CC3)c2)c(N2CCC3(CC2)CC3)c1 [Compound 46],100 to 500
11,COc1ccc(C(=O)Nc2ccc(S(=O)(=O)N[C@@H](C)CO)cc2N2CCC3(CC2)CC3)nc1N1CCC(F)(F)CC1 [Compound 349],≤ 100
12,C[C@@H](CO)NS(=O)(=O)c1cc(N2CCC3(CC2)CC3)c(NC(=O)c2ccc([N+](=O)[O-])c(N3CCC(F)(F)CC3)n2)cn1 [Compound 253],100 to 500
13,O=C(Nc1ccc([N+](=O)[O-])c(OCCC(F)(F)F)n1)c1cnc(S(=O)(=O)NCCO)cc1N1CCC2(CC1)CC2 [Compound 149],≤ 100
14,COc1ccc(C(=O)Nc2cnc(S(=O)(=O)NCCO)cc2N2CCC3(CC2)CC3)nc1N1CCC(F)(F)CC1 [Compound 369],≤ 100
15,C[C@@H]1CN(c2cc(NC(=O)c3cnc(S(=O)(=O)N[C@@H](C)CO)cc3N3CCC4(CC3)CC4)ccc2[N+](=O)[O-])CCO1 [Compound 127],≤ 100
16,C[C@H]1CN(c2cc(C(=O)Nc3cnc(NS(=O)(=O)CCO)cc3N3CCC4(CC3)CC4)ccc2[N+](=O)[O-])CCO1 [Compound 195],≤ 100
17,O=C(Nc1ccc([N+](=O)[O-])c(OC2CCC2)c1)c1cnc(S(=O)(=O)NCCO)cc1N1CCC2(CC1)CC2 [Compound 119],≤ 100
18,C[C@H](CO)S(=O)(=O)Nc1ccc(NC(=O)c2ccc([N+](=O)[O-])c(N3CCC(F)(F)CC3)n2)c(N2CCC3(CC2)CC3)c1 [Compound 174],≤ 100
19,C[C@@H]1CN(c2nc(C(=O)Nc3ccc(S(=O)(=O)N[C@@H](C)CO)cc3N3CCC4(CC3)CC4)ccc2[N+](=O)[O-])CCO1 [Compound 191],100 to 500
20,C[C@@H]1CN(c2nc(C(=O)Nc3cnc(NS(=O)(=O)[C@@H](C)CO)cc3N3CCC4(CC3)CC4)ccc2[N+](=O)[O-])CCO1 [Compound 239],≤ 100

# The remaining lines, values ahead:
row,IC50 [nM],SMILES
1,≤ 100,COc1ccc(NC(=O)c2ccc(NS(=O)(=O)[C@H](C)CO)cc2N2CCC3(CC2)CC3)nc1N1CCO[C@H](C)C1 [Compound 272]
2,≤ 100,O=C(Nc1ccc([N+](=O)[O-])c(N2CC(F)(F)C2)n1)c1cnc(NS(=O)(=O)CCO)cc1N1CCC2(CC1)CC2 [Compound 132]
3,≤ 100,O=C(Nc1ccc([N+](=O)[O-])c(N2CCC(F)CC2)c1)c1ccc(NS(=O)(=O)CCO)cc1N1CCC2(CC1)CC2 [Compound 9]
4,100 to 500,O=C(Nc1ccc(S(=O)(=O)NCCO)cc1N1CCC2(CC1)CC2)c1ccc(OCF)c(N2CC(F)(F)C2)n1 [Compound 564]
5,≤ 100,O=C(Nc1ccc(NS(=O)(=O)CCO)cc1N1CCC2(CC1)CC2)c1ccc([N+](=O)[O-])c(N2CCOCC2)n1 [Compound 172]
6,≤ 100,CC1(F)CCN(c2nc(NC(=O)c3ccc(S(=O)(=O)NCCO)cc3N3CCC4(CC3)CC4)ccc2OCF)C1 (stereo not drawn) [Compound 440]
7,≤ 100,O=C(Nc1ccc(OCF)c(N2CCC3(CC3)C2)n1)c1ccc(NS(=O)(=O)CCO)cc1N1CCC2(CC1)CC2 [Compound 422]
8,≤ 100,C[C@@H]1CN(c2nc(NC(=O)c3ccc(S(=O)(=O)NCCO)cc3N3CCC4(CC3)CC4)ccc2OCF)CCO1 [Compound 434]
9,≤ 100,C[C@H]1CN(c2cc(NC(=O)c3cnc(S(=O)(=O)NCCO)cc3N3CCC4(CC3)CC4)ccc2OCF)CCO1 [Compound 467]
10,100 to 500,O=C(Nc1ccc(S(=O)(=O)NCCO)cc1N1CCC2(CC1)CC2)c1ccc(OCF)c(N2CC3CC3C2)n1 (stereo not drawn) [Compound 570]
11,≤ 100,O=C(Nc1ccc([N+](=O)[O-])c(N2CCOCC2)c1)c1ccc(NS(=O)(=O)CCO)cc1N1CCC2(CC1)CC2 [Compound 12]
12,≤ 100,O=C(Nc1ccc(OCF)c(OCCC(F)(F)F)n1)c1cnc(NS(=O)(=O)CCO)cc1N1CCC2(CC1)CC2 [Compound 485]
13,≤ 100,C[C@H]1CN(c2nc(C(=O)Nc3ccc(NS(=O)(=O)CCO)cc3N3CCC4(CC3)CC4)ccc2OCF)CCO1 [Compound 547]
14,≤ 100,CC1(F)CCN(c2nc(C(=O)Nc3cnc(NS(=O)(=O)CCO)cc3N3CCC4(CC3)CC4)ccc2[N+](=O)[O-])C1 (stereo not drawn) [Compound 232]
15,≤ 100,O=C(Nc1ccc(NS(=O)(=O)CCO)cc1N1CCC2(CC1)CC2)c1ccc(OCF)c(N2CC3CC3C2)c1 (stereo not drawn) [Compound 522]
16,≤ 100,O=C(Nc1ccc(NS(=O)(=O)CCO)cc1N1CCC2(CC1)CC2)c1ccc(OCF)c(OCCC(F)(F)F)c1 [Compound 517]
17,≤ 100,O=C(Nc1ccc(OCF)c(N2CC3CC3C2)n1)c1ccc(S(=O)(=O)NCCO)cc1N1CCC2(CC1)CC2 (stereo not drawn) [Compound 442]
18,≤ 100,CSc1ccc(NC(=O)c2cnc(NS(=O)(=O)[C@H](C)CO)cc2N2CCC3(CC2)CC3)cc1N1CCC(F)(F)CC1 [Compound 622]
19,≤ 100,O=C(Nc1ccc(OCF)c(N2CCC(F)(F)CC2)n1)c1ccc(NS(=O)(=O)CCO)cc1N1CCC2(CC1)CC2 [Compound 417]
20,≤ 100,C[C@@H](CO)S(=O)(=O)Nc1ccc(NC(=O)c2ccc(OCF)c(N3CCC(F)(F)CC3)c2)c(N2CCC3(CC2)CC3)c1 [Compound 525]
21,≤ 100,O=C(Nc1ccc(OCF)c(N2CC3CC3C2)c1)c1ccc(S(=O)(=O)NCCO)cc1N1CCC2(CC1)CC2 (stereo not drawn) [Compound 410]
22,≤ 100,CSc1ccc(NC(=O)c2cnc(NS(=O)(=O)CCO)cc2N2CCC3(CC2)CC3)cc1N1CC2CC2C1 (stereo not drawn) [Compound 618]
23,≤ 100,O=C(Nc1ccc(NS(=O)(=O)CCO)cc1N1CCC2(CC1)CC2)c1ccc(OCF)c(OC2CCC2)n1 [Compound 551]
24,≤ 100,C[C@H]1CN(c2nc(NC(=O)c3ccc(NS(=O)(=O)CCO)cc3N3CCC4(CC3)CC4)ccc2OCF)CCO1 [Compound 419]
25,≤ 100,CC1(F)CCN(c2cc(NC(=O)c3cnc(NS(=O)(=O)CCO)cc3N3CCC4(CC3)CC4)ccc2OCF)C1 (stereo not drawn) [Compound 456]

# Source: patent US20260158017A1, “KIF18A INHIBITOR” (WIGEN BIOMEDICINE TECHNOLOGY (SHANGHAI) CO., LTD., priority 2021, published 2026)
